Values joined by “and” are separate entries in the source; they are usually repeats but may differ in a detail not shown here. Identical values can stand only once.
Target: T1, soluble glucose dehydrogenase (GDH) (Acinetobacter calcoaceticus, UniProt P13650)
T1 sequence (P13650 25-478): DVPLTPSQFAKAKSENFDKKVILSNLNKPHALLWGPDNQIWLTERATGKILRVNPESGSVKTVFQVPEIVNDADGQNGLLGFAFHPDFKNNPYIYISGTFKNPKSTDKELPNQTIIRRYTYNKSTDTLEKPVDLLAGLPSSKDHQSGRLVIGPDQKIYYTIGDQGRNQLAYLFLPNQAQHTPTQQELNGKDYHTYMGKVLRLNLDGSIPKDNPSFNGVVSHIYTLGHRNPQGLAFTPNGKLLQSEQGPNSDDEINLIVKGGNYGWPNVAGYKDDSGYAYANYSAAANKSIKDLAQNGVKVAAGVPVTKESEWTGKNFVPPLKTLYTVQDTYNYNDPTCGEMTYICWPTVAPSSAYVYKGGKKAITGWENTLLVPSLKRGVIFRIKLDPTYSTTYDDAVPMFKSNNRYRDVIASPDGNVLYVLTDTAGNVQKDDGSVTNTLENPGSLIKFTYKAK
Test: GDH assay: coenzyme activity relative to native methoxatin
Format: biochemical
Design: concentration or dose not given beside the values
Conditions: coenzyme activity expressed as a percentage of the methoxatin sample
Method: The coenzyme activity of several compounds relative to native methoxatin was determined with a published assay that utilizes soluble glucose dehydrogenase (GDH) from Acinetobactercalcoaceticus. (Misset-Smits et al., Methods in Enzymol., 280, 89-98 (1997)).

Structure (SMILES) | Relative Activity in GDH Assay
[N-]=[N+]=NCCOCCOCCOCCONC(=O)c1cc(C(=O)O)c2c(n1)C(=O)C(=O)c1cc(C(=O)O)[nH]c1-2 [Compound 7, 7-(((11-Azido-3,6,9-trioxaundecyl)oxy)carbamoyl)-4,5-dioxo-4,5-dihydro-1H-pyrrolo[2,3-f]quinoline-2,9-dicarboxylic acid] | 45% and 40%
O=C(O)c1cc(C(=O)O)c2c(n1)C(=O)C(=O)c1cc(C(=O)O)[nH]c1-2 [Methoxatin] | 100%
C=CCCCONC(=O)c1cc(C(=O)O)c2c(n1)C(=O)C(=O)c1cc(C(=O)O)[nH]c1-2 [Compound 5, 4,5-Dioxo-7-((pent-4-en-1-yloxy)carbamoyl)-4,5-dihydro-1H-pyrrolo[2,3-f]quinoline-2,9-dicarboxylic acid] | 40% and 45%
O=C(/C=C/c1cn([C@H]2C[C@H](O)[C@@H](CO)O2)c(=O)[nH]c1=O)NCCCCCCNC(=O)c1ccc(C(=O)NCCOCCOCCOCCONC(=O)c2cc(C(=O)O)c3c(n2)C(=O)C(=O)c2cc(C(=O)O)[nH]c2-3)c(P(=O)(c2ccccc2)c2ccccc2)c1 [Compound 15, 7-(((1-(2-(diphenylphosphoryl)-4-((6-((E)-3-(1-((2R,4S,5R)-4-hydroxy-5-(hydroxymethyl)tetrahydrofuran-2-yl)-2,4-dioxo-1,2,3,4-tetrahydropyrimidin-5-yl)acrylamido)hexyl)carbamoyl)phenyl)-1-oxo-5,8,11-trioxa-2-azatridecan-13-yl)oxy)carbamoyl)-4,5-dioxo-4,5-dihydro-1H-pyrrolo[2,3-f]quinoline-2,9-dicarboxylic acid] | 6%
